From patent publication EP0325936A2, “Aminoguanidine derivatives and inhibitory agents on maillard reaction containing them as active ingredients” (ONO PHARMACEUTICAL CO., LTD., priority 1988, dated 1989)

test system: Maillard reaction; assay: Inhibitory effect on Maillard reaction in vitro (BSA + glucose incubation, fluorescence); format: biochemical; settings: 6mM test compound; 100 mg/ml bovine serum albumin (BSA), 200 mM glucose, 0.5 M phosphatic buffer solution (pH 7.38), incubated for a week at 37°C; fluorescence excitation 360nm, emission 450 nm
Protocol: An inhibitory activity on Maillard reaction of the compounds of the present invention was confirmed by the screening system mentioned below.
In order to evaluate the inhibitory effect on Maillard reaction in vitro, of the compounds in the present invention, the measurement was carried out under conditions described below.
100 mg/ml bovine serum albumin (BSA), 200 mM glucose and 6mM test compound were dissolved in 0.5 M phosphatic buffer solution (pH 7.38), and the mixture was incubated for a week at 37°C.
After incubation, the incubated medium was diluted 100 times with the same phosphatic buffer solution, and the fluorescence spectrum was measured at the excitation maximum of 360nm and the emission maximum of 450 nm.
Inhibition percentage of the test compounds was calculated by the following equation: [formula] ΔI₁ : fluorescence of test compounds ΔI₂ : fluorescence of (test compounds + glucose), ΔI₃ : fluorescence of (test compounds + BSA), ΔI₄ : fluorescence of (test compounds + BSA + glucose), ΔI : fluorescence of (BSA + glucose)

| Compound | Inhibitory effect (%) (6mM) |
| --- | --- |
| N=C(N)NNc1ccc(Cl)cc1.O=S(=O)(O)O [1(b), 1-(4-chloroanilino) guanidine sulfate] | 100% |
| N=C(N)NNc1ccc(F)cc1.O=S(=O)(O)O [1(c), 1-(4-fluoroanilino) guanidine sulfate] | 100% |
| COc1ccc(NNC(=N)N)cc1.O=S(=O)(O)O [1(d), 1-(4-methoxyanilino) guanidine sulfate] | 100% |
| Cc1ccc(NNC(=N)N)cc1.O=S(=O)(O)O [1(h), 1-(4-methylanilino) guanidine sulfate] | 83% |
| N=C(N)NNc1cccc([N+](=O)[O-])c1.O=S(=O)(O)O [1(j), 1-(3-nitroanilino) guanidine sulfate] | 94% |
| N=C(N)NNc1ccccc1Cl.O=S(=O)(O)O [Example 1(a), 1-(2-chloroanilino) guanidine sulfate] | 79% |
| N=C(N)NNc1ccccc1.O=S(=O)(O)O [Example 1, 1-anilinoguanidine sulfate] | 79% |
